Results published in a compilation of properties of binary mixtures (doi:10.1016/j.molliq.2017.09.070).

Assay: xn = mol fraction of the nth substance listed
Conditions: 100 kPa; for viscosity: 298.1 K

CCCC[N+]1(C)CCCC1.O=S(=O)([N-]S(=O)(=O)C(F)(F)F)C(F)(F)F + CC1COC(=O)O1
Conditions	electrical conductivity [S/m]
296.9 K, x1 = 0.4	0.781
297.1 K, x1 = 0.6	0.543
297.1 K, x1 = 0.9	0.347
297.3 K, x1 = 0.2	1
299.8 K, x1 = 0.9	0.366
299.9 K, x1 = 0.2	1.02
299.9 K, x1 = 0.6	0.571
302.5 K, x1 = 0.2	1.04
302.5 K, x1 = 0.4	0.835
302.6 K, x1 = 0.6	0.593
302.6 K, x1 = 0.8	0.444
302.6 K, x1 = 0.9	0.387
305.3 K, x1 = 0.4	0.864
305.4 K, x1 = 0.2	1.07
305.4 K, x1 = 0.6	0.615
305.4 K, x1 = 0.8	0.471
305.4 K, x1 = 0.9	0.417
307.9 K, x1 = 0.4	0.882
307.9 K, x1 = 0.8	0.501
308.1 K, x1 = 0.9	0.437
308.2 K, x1 = 0.6	0.639
308.4 K, x1 = 0.2	1.11
310.9 K, x1 = 0.4	0.901
310.9 K, x1 = 0.9	0.461
311.1 K, x1 = 0.2	1.13
311.1 K, x1 = 0.6	0.666
313.5 K, x1 = 0.9	0.487
313.7 K, x1 = 0.6	0.683
316.3 K, x1 = 0.4	0.963
316.3 K, x1 = 0.8	0.578
316.5 K, x1 = 0.6	0.704
316.5 K, x1 = 0.9	0.508
319 K, x1 = 0.4	0.988
319.2 K, x1 = 0.2	1.19
319.2 K, x1 = 0.8	0.603
319.2 K, x1 = 0.9	0.529
321.9 K, x1 = 0.4	1.01
322.1 K, x1 = 0.2	1.2
322.1 K, x1 = 0.8	0.628
322.3 K, x1 = 0.6	0.746
324.6 K, x1 = 0.2	1.22
324.7 K, x1 = 0.8	0.652
324.9 K, x1 = 0.4	1.02
324.9 K, x1 = 0.6	0.771
324.9 K, x1 = 0.9	0.59
327.2 K, x1 = 0.9	0.615
327.4 K, x1 = 0.2	1.24
327.4 K, x1 = 0.4	1.05
327.4 K, x1 = 0.8	0.677
330.1 K, x1 = 0.4	1.07
330.3 K, x1 = 0.6	0.811
330.4 K, x1 = 0.8	0.701
332.9 K, x1 = 0.8	0.721
333 K, x1 = 0.2	1.27
333 K, x1 = 0.4	1.09
333 K, x1 = 0.9	0.661
333.2 K, x1 = 0.6	0.828
335.5 K, x1 = 0.9	0.683
335.7 K, x1 = 0.2	1.3
335.9 K, x1 = 0.6	0.842
335.9 K, x1 = 0.8	0.74
336 K, x1 = 0.4	1.12
338.5 K, x1 = 0.4	1.13
338.5 K, x1 = 0.9	0.706
338.7 K, x1 = 0.6	0.864
341.4 K, x1 = 0.4	1.16
341.4 K, x1 = 0.9	0.734
341.6 K, x1 = 0.2	1.32
343.8 K, x1 = 0.8	0.804
344 K, x1 = 0.2	1.33
344 K, x1 = 0.4	1.16
344.2 K, x1 = 0.9	0.752
344.4 K, x1 = 0.6	0.908
347 K, x1 = 0.2	1.34
347 K, x1 = 0.6	0.935
347 K, x1 = 0.8	0.835
347 K, x1 = 0.9	0.781
349.5 K, x1 = 0.8	0.849
349.9 K, x1 = 0.2	1.36
349.9 K, x1 = 0.9	0.808
350.1 K, x1 = 0.6	0.951

Conditions	viscosity [mPa·s]
x1 = 0.2	5.5
x1 = 0.4	13.7
x1 = 0.6	29.8
x1 = 0.8	41.3
x1 = 0.9	48.1

CC1COC(=O)O1 (stereo unspecified) + CCCC[n+]1ccn(C)c1.O=S(=O)([N-]S(=O)(=O)C(F)(F)F)C(F)(F)F
Conditions	viscosity [mPa·s]
x2 = 0.2	7.5
x2 = 0.4	11.9
x2 = 0.6	20
x2 = 0.8	31.4
x2 = 0.9	35.4
